According to the supplement of paper PMC6045584:
± gives the standard deviation of the averaged measurements.

Legend:
[1] = compound: Oc1nc(-c2ccc(C(F)(F)F)cc2)nc2c1CSCC2 [XAV-939]; test: surviving fraction relative to DMSO-only wells; higher = less growth inhibition; conditions: exposure time: 5 days
In short: (§1)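 Lines were retained only if, across three screens, replicate Pearson r was >0.7 and median Z' was >0.3. Viability was measured as CellTiter-Glo luminescence and reported as surviving fraction relative to the median of DMSO-only wells. Readings followed 10 minutes at room temperature, after log-phase tumour cells seeded at 250–500 per well in 384-well plates had been exposed, from 24 hours after seeding, continuously for five days to inhibitors at 0.5, 1, 5, 10, 50, 100, 500 and 1000 nM.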

[2] = compound: COc1cc2c(Oc3ccc(NC(=O)C4(C(=O)Nc5ccc(F)cc5)CC4)cc3F)ccnc2cc1OCCCN1CCOCC1 [FORETINIB]; test: as above; conditions: exposure time: 5 days
In short: as §1

| Test System | surviving fraction ([1]; 0.5 nM) | surviving fraction ([1]; 1 nM) | surviving fraction ([1]; 5 nM) | surviving fraction ([1]; 10 nM) | surviving fraction ([1]; 50 nM) | surviving fraction ([1]; 100 nM) | surviving fraction ([1]; 500 nM) | surviving fraction ([1]; 1000 nM) | surviving fraction ([2]; 0.5 nM) | surviving fraction ([2]; 1 nM) | surviving fraction ([2]; 5 nM) | surviving fraction ([2]; 10 nM) | surviving fraction ([2]; 50 nM) | surviving fraction ([2]; 100 nM) | surviving fraction ([2]; 500 nM) | surviving fraction ([2]; 1000 nM) |
| --- | --- | --- | --- | --- | --- | --- | --- | --- | --- | --- | --- | --- | --- | --- | --- | --- |
| SUM149.B1*.S BREAST | 0.968 ± 0.033 | 1.07 ± 0.059 | 1.04 ± 0.047 | 1.06 ± 0.082 | 0.996 ± 0.045 | 1.06 ± 0.033 | 1.01 ± 0.03 | 1 ± 0.026 | 1.13 ± 0.068 | 1.19 ± 0.078 | 1.12 ± 0.022 | 1.11 ± 0.021 | 1.11 ± 0.059 | 1.09 ± 0.054 | 0.855 ± 0.033 | 0.515 ± 0.067 |
| OS25HAL BONE | 1.01 ± 0.026 | 1.04 ± 0.015 | 1.03 ± 0.014 | 0.965 ± 0.034 | 1.01 ± 0.013 | 1.03 ± 0.029 | 0.872 ± 0.06 | 0.893 ± 0.075 | 1.01 ± 0.045 | 1.04 ± 0.032 | 1.08 ± 0.0095 | 1 ± 0.018 | 0.924 ± 0.023 | 0.951 ± 0.031 | 0.375 ± 0.038 | 0.193 ± 0.0084 |
| MDAMB436 BREAST | 0.957 ± 0.092 | 0.911 ± 0.088 | 0.923 ± 0.013 | 0.968 ± 0.079 | 0.959 ± 0.075 | 0.958 ± 0.081 | 0.856 ± 0.049 | 0.82 ± 0.011 | 0.976 ± 0.091 | 0.923 ± 0.086 | 0.982 ± 0.043 | 1.05 ± 0.14 | 1.02 ± 0.043 | 0.91 ± 0.2 | 0.856 ± 0.16 | 0.687 ± 0.047 |
| LM7 BONE | 0.964 ± 0.078 | 1.03 ± 0.062 | 1.05 ± 0.075 | 1.131 ± 0.011 | 1.08 ± 0.11 | 1.08 ± 0.048 | 0.915 ± 0.068 | 0.877 ± 0.045 | 1.02 ± 0.028 | 1.04 ± 0.06 | 1.05 ± 0.016 | 1.02 ± 0.011 | 0.997 ± 0.015 | 1.03 ± 0.058 | 0.725 ± 0.042 | 0.216 ± 0.013 |
| HELA CERVIX | 1.02 ± 0.066 | 1.07 ± 0.033 | 1.06 ± 0.025 | 1.08 ± 0.036 | 1.09 ± 0.059 | 1.16 ± 0.028 | 1.09 ± 0.053 | 1.1 ± 0.049 | 1.09 ± 0.037 | 1.05 ± 0.091 | 1.1 ± 0.039 | 1.05 ± 0.052 | 1.14 ± 0.11 | 1.15 ± 0.042 | 0.659 ± 0.073 | 0.07233 ± 0.00058 |
| 93VU HEADNECK | 0.98 ± 0.073 | 1.06 ± 0.071 | 1.11 ± 0.091 | 1.07 ± 0.077 | 1.15 ± 0.095 | 1.17 ± 0.066 | 1.05 ± 0.089 | 0.907 ± 0.035 | 1.21 ± 0.1 | 1.21 ± 0.048 | 1.2 ± 0.13 | 1.07 ± 0.039 | 1.04 ± 0.024 | 1.04 ± 0.025 | 0.849 ± 0.13 | 0.224 ± 0.076 |
| ZR751 BREAST | 0.873 ± 0.048 | 0.925 ± 0.18 | 0.869 ± 0.092 | 0.987 ± 0.03 | 0.683 ± 0.082 | 0.762 ± 0.15 | 0.69 ± 0.052 | 0.685 ± 0.036 | 1.04 ± 0.21 | 1.12 ± 0.12 | 0.969 ± 0.1 | 1.06 ± 0.16 | 0.963 ± 0.06 | 1.07 ± 0.062 | 0.902 ± 0.062 | 0.783 ± 0.1 |
| S68 BREAST | 0.722 ± 0.22 | 0.763 ± 0.12 | 1.14 ± 0.25 | 0.983 ± 0.32 | 1.19 ± 0.13 | 1.12 ± 0.22 | 0.829 ± 0.05 | 0.767 ± 0.076 | 0.862 ± 0.072 | 0.875 ± 0.33 | 1.35 ± 0.14 | 0.916 ± 0.15 | 1.05 ± 0.082 | 0.78 ± 0.059 | 0.313 ± 0.025 | 0.331 ± 0.077 |
| SCC003 HEADNECK | 1.04 ± 0.11 | 1.07 ± 0.096 | 1.1 ± 0.052 | 1.08 ± 0.11 | 1.02 ± 0.025 | 1.07 ± 0.076 | 1.01 ± 0.12 | 1.05 ± 0.13 | 1.09 ± 0.068 | 1.14 ± 0.033 | 1.12 ± 0.074 | 1.11 ± 0.038 | 1.04 ± 0.066 | 1.06 ± 0.088 | 0.912 ± 0.046 | 0.485 ± 0.0087 |
| 22RV1 PROSTATE | 1.02 ± 0.072 | 1.05 ± 0.11 | 1.03 ± 0.032 | 1 ± 0.065 | 0.934 ± 0.024 | 0.977 ± 0.024 | 1 ± 0.12 | 1.03 ± 0.096 | 1.02 ± 0.065 | 1.04 ± 0.033 | 0.98 ± 0.15 | 0.984 ± 0.043 | 0.965 ± 0.12 | 0.99 ± 0.17 | 0.611 ± 0.061 | 0.511 ± 0.015 |
